Like-named read-outs stand apart in the source and are kept apart here.
Columns and labels:
CCR1 [1] = biological target: T1, CCR1 (Homo sapiens, UniProt P32246); test: Live cell NanoBRET binding assay, HEK293T cells expressing CCR1_Nluc; set-up: Promega pNLF1-C (Nluc) #CCR010TN00; host or cells: HEK293T, transient (PEI); conditions: for Ki: 12 (1000 nM), live HEK293T cells
T1 sequence (P32246 1-355): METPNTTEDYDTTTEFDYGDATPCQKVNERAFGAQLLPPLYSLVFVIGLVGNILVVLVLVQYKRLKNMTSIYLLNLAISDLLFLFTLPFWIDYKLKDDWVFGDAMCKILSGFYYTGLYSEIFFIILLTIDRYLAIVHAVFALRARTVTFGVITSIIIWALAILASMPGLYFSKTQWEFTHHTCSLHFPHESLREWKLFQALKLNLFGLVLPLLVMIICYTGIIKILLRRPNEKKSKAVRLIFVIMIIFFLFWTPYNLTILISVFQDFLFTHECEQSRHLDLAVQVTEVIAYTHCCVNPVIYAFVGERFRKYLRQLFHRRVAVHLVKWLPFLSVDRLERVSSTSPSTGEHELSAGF

CCR1 [2] = biological target: T1, CCR1; test: Membrane-based NanoBRET saturation binding assay, CCR1_Nluc membranes from HEK293T cells; set-up: Promega pNLF1-C (Nluc) #CCR010TN00; host or cells: HEK293T, transient (PEI); conditions: saturation binding of fluorescent ligand, read-out: KD (equilibrium, KD(eq.))
From the text: To evaluate the CCR1 affinity of previously reported (8–9) and new fluorescently labeled pyrrolones (11–12), we developed a NanoBRET-based binding assay (Figures 4A–H and S2A–J). To this end, we used a previously reported CCR1 construct (hereafter referred to as CCR1_Nluc) with a small and bright luciferase variant (nanoluciferase,[52] Nluc), fused to the intracellular C-terminus of CCR1 (Figures 4A and S2A).[47] […] This was expected, given the very low CCR2/CCR1 selectivity of the parental ligands 4 and 5 (Figure 1).[33] For further studies, we selected 12 due to its highest CCR1 affinity.
Cell culture: HEK293T cells were cultured as previously described.8 In brief, HEK293T cells (gift from Chair of Physiology, Prof. Dr. Alzheimer, FAU Erlangen-Nürnberg) were grown on 10 cm culture dishes at 37 °C and 5% CO2. As growth medium, Dulbecco's Modified Eagle Medium (DMEM)/F12 (Invitrogen) supplemented with 10% fetal bovine serum (FBS, Gibco™ Fetal Bovine Serum, qualified, Brazil), L-glutamine (final concentration: 2 mM; from Gibco™ L-glutamine 200 mM, 100X), penicillin (final concentration: 100 units/mL), and streptomycin (final concentration: 100 µg/mL; from Gibco™ Penicillin-Streptomycin 10,000 U/mL) was used. Cells were split every three to four days and regularly confirmed to be free of mycoplasma contamination using the luminescence-based MycoAlert Plus Kit (Lonza).
Transient transfection using polyethylenimine: For transfection, we used a previously published procedure.8 In brief, HEK293T cells were plated onto culture dishes (Ø 10 cm or Ø 15 cm) and grown to a confluence of approximately 50% at 37 °C and 5% CO2. The growth medium was renewed one-hour before transfection. The transfection mix was prepared, as described in the following. Solution A (0.4-2.2% total DNA (1-5.5 µg) in Gibco™ phosphate buffered saline, pH 7.4) and solution B (3% PEI (linear, 25 kDa, from Polysciences) solution prepared from a PEI stock solution (0.4 µg/µL) in PBS without MgCl2 and CaCl2) were mixed one to one, the resulting mixture was vortexed for 5 s and incubated for 30 min at room temperature. The pre-incubated transfection mix was added dropwise to the cells and cell cultivation was continued […]
Membrane preparation: Membranes were prepared as previously reported.8 In brief, membranes from HEK293T cells transiently expressing the respective GPCR were prepared as follows. The medium of the transfected cells was refreshed after 24 h before cells were harvested 48 h post-transfection. […]
Finally, the protein concentration was determined using the Lowry method.9 cDNA constructs: The CCR1-Nluc fusion construct (CCR1_Nluc) in pcDNA3.1 was generated as previously reported1 using the Gibson Assembly10 (New England Biolabs) method. […]

Row | SMILES | Ki (CCR1 [1]; read-out: Ki, live cells) [µM] | Ki (CCR1 [1]; read-out: pKi ± SEM, live cells (converted)) [µM] | Kd (CCR1 [2]) [µM] | Kd (CCR1 [1]; live HEK293T cells expressing CCR1_Nluc) [µM]
1 | O=C(C1=C(O)C(=O)N(CCc2ccc(O)cc2)C1c1ccc(F)cc1)c1ccccc1 (racemic) [compound 23] | 0.235 | 0.229 | – | –
2 | CC(=O)C1=C(O)C(=O)N(c2ccc(Br)cc2F)C1C1CCCCC1 (stereo not drawn) [compound 5, reference compound] | 0.0242 | – | – | –
3 | CN(C)c1ccc2c(-c3cc(C(=O)NCCOCCOCc4cn(CCCC(=O)C5=C(O)C(=O)N(c6ccc(Cl)cc6F)C5C5CCCCC5)nn4)ccc3C(=O)[O-])c3ccc(=[N+](C)C)cc-3oc2c1 (stereo not drawn) [compound 11] | – | – | 3.17 ± 0.37 | –
4 | CN(C)c1ccc2c(-c3cc(C(=O)NCCOCCOCc4cn(CCCC(=O)C5=C(O)C(=O)N(c6ccc(Br)cc6F)C5C5CCCCC5)nn4)ccc3C(=O)[O-])c3ccc(=[N+](C)C)cc-3oc2c1 (stereo not drawn) [compound 12] | – | – | 1.9 ± 0.18 | 0.505 ± 0.093

Reference: publication PMC11249626, “Fluorophore-Labeled Pyrrolones Targeting the Intracellular Allosteric Binding Site of the Chemokine Receptor CCR1” (ACS Pharmacology & Translational Science, 2024)
